Assay results as given in paper PMC6310130 (Molecular and biochemical parasitology, 2014).
Where a SMILES comes first, the peptide text is derived from it. [ ]: non-standard residue; d: D form. The star is where a group is joined. Sta = CC(C)C[C@H](N)[C@@H](O)CC(=O)O; Isovaleryl = CC(C)CC(=O)*

What follows are compounds tested against Plasmepsin V (Plasmodium falciparum, UniProt Q8I6Z5) (assay: fluorogenic HRPII peptide cleavage assay, recombinant refolded enzyme, pH […]).
Format: biochemical

Plasmepsin V, sequence (Q8I6Z5 81-521): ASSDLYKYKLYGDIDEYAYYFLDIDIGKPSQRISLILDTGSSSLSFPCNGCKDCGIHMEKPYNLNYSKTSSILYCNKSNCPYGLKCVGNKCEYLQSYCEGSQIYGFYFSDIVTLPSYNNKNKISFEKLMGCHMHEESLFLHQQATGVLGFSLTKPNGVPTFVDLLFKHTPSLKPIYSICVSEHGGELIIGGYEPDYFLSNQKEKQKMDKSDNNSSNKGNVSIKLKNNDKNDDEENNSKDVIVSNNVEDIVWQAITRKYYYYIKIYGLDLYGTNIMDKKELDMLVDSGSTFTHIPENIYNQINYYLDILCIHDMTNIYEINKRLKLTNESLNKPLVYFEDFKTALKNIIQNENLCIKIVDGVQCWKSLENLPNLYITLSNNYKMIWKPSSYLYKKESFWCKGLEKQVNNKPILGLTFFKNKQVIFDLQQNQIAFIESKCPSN

| Compound | IC50 [µM] |
| --- | --- |
| KNI-10742 | 108 |
| KNI-10743 | 44 |
| CC(C)CC(=O)N[C@H](C(=O)N[C@H](C(=O)N[C@@H](CC(C)C)[C@@H](O)CC(=O)N[C@@H](C)C(=O)N[C@@H](CC(C)C)[C@@H](O)CC(=O)O)C(C)C)C(C)C [pepstatin A] (Isovaleryl-VV[Sta]A[Sta]-OH) | 22 |
